The IC50 is the point on the concentration scale where inhibition reaches its midpoint.

T1 sequence (P03952 391-638 limits assumed): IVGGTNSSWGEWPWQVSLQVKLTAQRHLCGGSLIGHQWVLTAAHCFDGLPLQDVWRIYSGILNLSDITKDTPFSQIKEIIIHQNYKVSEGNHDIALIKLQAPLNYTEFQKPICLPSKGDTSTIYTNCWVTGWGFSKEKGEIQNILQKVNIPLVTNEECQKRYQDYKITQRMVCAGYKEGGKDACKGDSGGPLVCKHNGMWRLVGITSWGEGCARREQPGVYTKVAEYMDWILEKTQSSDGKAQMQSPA
T1 sequence (P03952 20-390 partner limits assumed): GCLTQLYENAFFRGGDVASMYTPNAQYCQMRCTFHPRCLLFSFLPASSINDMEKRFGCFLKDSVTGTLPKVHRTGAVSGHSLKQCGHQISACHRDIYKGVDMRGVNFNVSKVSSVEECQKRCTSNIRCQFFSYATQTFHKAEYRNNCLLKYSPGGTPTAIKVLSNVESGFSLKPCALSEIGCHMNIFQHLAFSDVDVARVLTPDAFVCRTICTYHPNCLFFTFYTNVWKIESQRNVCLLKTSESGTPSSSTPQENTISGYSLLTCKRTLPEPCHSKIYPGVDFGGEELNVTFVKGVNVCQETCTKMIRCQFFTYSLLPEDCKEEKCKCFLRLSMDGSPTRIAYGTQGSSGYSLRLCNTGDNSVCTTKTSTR

The assay has as its target T1, Human plasma kallikrein (Homo sapiens, UniProt P03952).
T1 construct: yields a heavy chain (371 amino acids) and a light chain (248 amino acids); purchased Enzyme Research Laboratories
Briefly: Kallikrein Assay (fluorogenic substrate hydrolysis, AFC release). It counts as biochemical. The following applies: purified Human plasma kallikrein 0.5 nM; substrate Acetyl-K—P—R-AFC 100 mM; 50 mM HEPES pH 7.4. As for the experimental part: The effectiveness of a compound of the present invention as an inhibitor of Kallikrein can be determined using a relevant purified serine protease, and an appropriate synthetic substrate. The rate of hydrolysis of the chromogenic or fluorogenic substrate by the relevant serine protease was measured both in the absence and presence of compounds of the present invention. Assays were conducted at room temperature or at 37° C. […] A decrease in the rate of fluorescence change in the presence of inhibitor is indicative of enzyme inhibition. Such methods are known to one skilled in the art. The results of this assay are expressed as the half-maximal inhibitory concentrations (IC50), or the inhibitory constant, Ki.
Kallikrein determinations were made in 50 mM HEPES buffer at pH 7.4 containing 150 mM NaCl, 5 mM CaCl2), and 0.1% PEG 8000 (polyethylene glycol; Fisher Scientific). Determinations were made using purified Human plasma kallikrein at a final concentration of 0.5 nM (Enzyme Research Laboratories) and the synthetic substrate, Acetyl-K—P—R-AFC (Sigma #C6608) at a concentration of […].
Activity assays were performed by diluting a stock solution of substrate at least tenfold to a final concentration ≤0.2 Km into a solution containing enzyme or enzyme equilibrated with inhibitor. Times required to achieve equilibration between enzyme and inhibitor were determined in control experiments. The reactions were performed under linear progress curve conditions and fluorescence increase measured at 405 Ex/510 Em nm. Values were converted to percent inhibition of the control reaction (after subtracting 100% Inhibition value). IC50 was determined by inflection point from a four parameter logistic curve fit. Ki was calculated using the Cheng Prusoff equation, Ki=IC50/(1+([S]/Km)).
Compound `COc1cc(C(C)n2cc(C(=O)N[C@H]3C[C@@H](c4cc(Cl)ccc4C#N)C3)nn2)cnc1N1C[C@H]2C[C@H]2C1=O` (mixture of isomers) [Example 100, N-((cis)-3-(5-chloro-2-cyanophenyl)cyclobutyl)-1-((R and S)-1-(5-methoxy-6-((1R,5S)-2-oxo-3-azabicyclo[3.1.0]hexan-3-yl)pyridin-3-yl)ethyl)-1H-1,2,3-triazole-4-carboxamide] came in with an IC50 of 2 nM.
Compound `Cc1c([C@H](C)n2cc(C(=O)N[C@H]3C[C@@H](c4cc(Cl)ccc4C#N)C3)nn2)cnc(N2C[C@H]3C[C@H]3C2=O)c1O` (relative stereo) [Example 164, N-((cis)-3-(5-chloro-2-cyanophenyl)cyclobutyl)-1-((S)-1-(5-hydroxy-4-methyl-6-((1R,5S)-2-oxo-3-azabicyclo[3.1.0]hexan-3-yl)pyridin-3-yl)ethyl)-1H-12,3-triazole-4-carboxamide] gave an IC50 of 46.7 nM.
With `CC(c1cnc(N2C[C@H]3C[C@H]3C2=O)nc1)n1cc(C(=O)N[C@H]2C[C@@H](c3cc(Cl)ccc3C#N)C2)cn1` (single isomer, unassigned) [Example 3, N-((cis)-3-(5-chloro-2-cyanophenyl)cyclobutyl)-1-((R or S)-1-(2-((1R,5S)-2-oxo-3-azabicyclo[3.1.0]hexan-3-yl)pyrimidin-5-yl)ethyl)-1H-pyrazole-4-carboxamide], the IC50 was found to be 6.7 nM.
The value for `CC(c1cnc(N2C[C@H]3C[C@H]3C2=O)nc1)n1cc(C(=O)N[C@H]2C[C@@H](c3cc(Cl)ccc3C#N)C2)cn1` (single isomer, unassigned) [Example 4, N-((cis)-3-(5-chloro-2-cyanophenyl)cyclobutyl)-1-((S or R)-1-(2-((1R,5S)-2-oxo-3-azabicyclo[3.1.0]hexan-3-yl)pyrimidin-5-yl)ethyl)-1H-pyrazole-4-carboxamide carboxamide] was 17.5 nM; that for `Cc1cc([C@H](C)n2cc(C(=O)N[C@H]3C[C@@H](c4cc(Cl)ccc4C#N)C3)cn2)cnc1N1C[C@H]2C[C@H]2C1=O` (single isomer, unassigned) [Example 5] was 0.6 nM; that for `Cc1cc([C@@H](C)n2cc(C(=O)N[C@H]3C[C@@H](c4cc(Cl)ccc4C#N)C3)cn2)cnc1N1C[C@H]2C[C@H]2C1=O` (single isomer, unassigned) [Example 6] was 0.7 nM.
On to `Cc1cc(N2C[C@H]3C[C@H]3C2=O)ncc1C(C)n1cc(C(=O)N[C@H]2C[C@@](C)(c3cc(Cl)ccc3C#N)C2)cn1` (single isomer, unassigned) [Example 9, N-((cis)-3-(5-chloro-2-cyanophenyl)-3-methylcyclobutyl)-1-((R or S)-1-(4-methyl-6-((1R,5S)-2-oxo-3-azabicyclo[3.1.0]hexan-3-yl)pyridin-3-yl)ethyl)-1H-pyrazole-4-carboxamide], for which half-maximal inhibition (IC50) required 0.3 nM.
The same measure for `Cc1cc(N2C[C@H]3C[C@H]3C2=O)ncc1C(C)n1cc(C(=O)N[C@H]2C[C@@](C)(c3cc(Cl)ccc3C#N)C2)cn1` (single isomer, unassigned) [Example 10, N-((cis)-3-(5-chloro-2-cyanophenyl)-3-methylcyclobutyl)-1-((S or R)-1-(4-methyl-6-((1R,5S)-2-oxo-3-azabicyclo[3.1.0]hexan-3-yl)pyridin-3-yl)ethyl)-1H-pyrazole-4-carboxamide]: 3.6 nM; for `COc1cc(N2C[C@H]3C[C@H]3C2=O)ncc1[C@H](C)n1cc(C(=O)N[C@H]2C[C@@H](c3cc(Cl)ccc3C#N)C2)cn1` (single isomer, unassigned) [Example 11]: 0.9 nM.
In turn, `COc1cc(N2C[C@H]3C[C@H]3C2=O)ncc1[C@@H](C)n1cc(C(=O)N[C@H]2C[C@@H](c3cc(Cl)ccc3C#N)C2)cn1` (single isomer, unassigned) [Example 12] came in with an IC50 of 7.7 nM.
For the compound `COc1cc(C(C)n2cc(C(=O)N[C@H]3C[C@@H](c4cc(Cl)ccc4C#N)C3)cn2)cnc1N1C[C@H]2C[C@H]2C1=O` (single isomer, unassigned) [Example 13, N-((cis)-3-(5-chloro-2-cyanophenyl)cyclobutyl)-1-((R or S)-1-(5-methoxy-6-((1R,5S)-2-oxo-3-azabicyclo[3.1.0]hexan-3-yl)pyridin-3-yl)ethyl)-1H-pyrazole-4-carboxamide], the IC50 amounted to 1 nM.
Compound `COc1cc(C(C)n2cc(C(=O)N[C@H]3C[C@@H](c4cc(Cl)ccc4C#N)C3)cn2)cnc1N1C[C@H]2C[C@H]2C1=O` (single isomer, unassigned) [Example 14, N-((cis)-3-(5-chloro-2-cyanophenyl)cyclobutyl)-1-((S or R)-1-(5-methoxy-6-((1R,5S)-2-0x0-3-azabicyclo[3.1.0]hexan-3-yl)pyridin-3-yl)ethyl)-1H-pyrazole-4-carboxamide] showed an IC50 of 2.8 nM.
Take `Cc1nn(C(C)c2cnc(N3C[C@H]4C[C@H]4C3=O)nc2)cc1C(=O)N[C@H]1C[C@@H](c2cc(Cl)ccc2C#N)C1` (single isomer, unassigned) [Example 15, N-((cis)-3-(5-chloro-2-cyanophenyl)cyclobutyl)-3-methyl-1-((R or S)-1-(2-((1R,5S)-2-oxo-3-azabicyclo[3.1.0]hexan-3-yl)pyrimidin-5-yl)ethyl)-1H-pyrazole-4-carboxamide]: half-maximal inhibition (IC50) was put at 2.6 nM.
`Cc1nn(C(C)c2cnc(N3C[C@H]4C[C@H]4C3=O)nc2)cc1C(=O)N[C@H]1C[C@@H](c2cc(Cl)ccc2C#N)C1` (single isomer, unassigned) [Example 16, N-((cis)-3-(5-chloro-2-cyanophenyl)cyclobutyl)-3-methyl-1-((S or R)-1-(2-((1R,5S)-2-oxo-3-azabicyclo[3.1.0]hexan-3-yl)pyrimidin-5-yl)ethyl)-1H-pyrazole-4-carboxamide] returned an IC50 of 6.7 nM.
For `CC(c1cnc(N2C[C@H]3C[C@H]3C2=O)nc1)n1cc(C(=O)N[C@H]2C[C@@H](c3cc(Cl)ccc3C#N)C2)c(C#N)n1` (single isomer, unassigned) [Example 17, N-((cis)-3-(5-chloro-2-cyanophenyl)cyclobutyl)-3-cyano-1-((R or S)-1-(2-((1R,5S)-2-oxo-3-azabicyclo[3.1.0]hexan-3-yl)pyrimidin-5-yl)ethyl)-1H-pyrazole-4-carboxamide], the IC50 was 5.5 nM.
For the compound `CC(c1cnc(N2C[C@H]3C[C@H]3C2=O)nc1)n1cc(C(=O)N[C@H]2C[C@@H](c3cc(Cl)ccc3C#N)C2)c(C#N)n1` (single isomer, unassigned) [Example 18, N-((cis)-3-(5-chloro-2-cyanophenyl)cyclobutyl)-3-cyano-1-((S or R)-1-(2-((1R,5S)-2-oxo-3-azabicyclo[3.1.0]hexan-3-yl)pyrimidin-5-yl)ethyl)-1H-pyrazole-4-carboxamide], the IC50 is 10.2 nM.
In turn, `Cc1cc(N2C[C@H]3C[C@H]3C2=O)ncc1C(C)n1cc(C(=O)N[C@H]2C[C@@H](c3cc(Cl)ccc3C#N)C2)c(C)n1` (single isomer, unassigned) [Example 19, N-((cis)-3-(5-chloro-2-cyanophenyl)cyclobutyl)-3-methyl-1-((R or S)-1-(4-methyl-6-((1R,5S)-2-oxo-3-azabicyclo[3.1.0]hexan-3-yl)pyridin-3-yl)ethyl)-1H-pyrazole-4-carboxamide] returned an IC50 of 0.3 nM.
Consider `Cc1cc(N2C[C@H]3C[C@H]3C2=O)ncc1C(C)n1cc(C(=O)N[C@H]2C[C@@H](c3cc(Cl)ccc3C#N)C2)c(C)n1` (single isomer, unassigned) [Example 20, N-((cis)-3-(5-chloro-2-cyanophenyl)cyclobutyl)-3-methyl-1-((S or R)-1-(4-methyl-6-((1R,5S)-2-oxo-3-azabicyclo[3.1.0]hexan-3-yl)pyridin-3-yl)ethyl)-1H-pyrazole-4-carboxamide], for which the midpoint of inhibition, the IC50, lay at 2.1 nM.
Compound `CC(c1cnc(N2C[C@H]3C[C@H]3C2=O)c(F)c1)n1cc(C(=O)N[C@H]2C[C@@H](c3cc(Cl)ccc3C#N)C2)cn1` (single isomer, unassigned) [Example 21, N-((cis)-3-(5-chloro-2-cyanophenyl)cyclobutyl)-1-((R or S)-1-(5-fluoro-6-((1R,5S)-2-oxo-3-azabicyclo[3.1.0]hexan-3-yl)pyridin-3-yl)ethyl)-1H-pyrazole-4-carboxamide] registered an IC50 of 1.1 nM.
As to `CC(c1cnc(N2C[C@H]3C[C@H]3C2=O)c(F)c1)n1cc(C(=O)N[C@H]2C[C@@H](c3cc(Cl)ccc3C#N)C2)cn1` (single isomer, unassigned) [Example 22, N-((cis)-3-(5-chloro-2-cyanophenyl)cyclobutyl)-1-((S or R)-1-(5-fluoro-6-((1R,5S)-2-oxo-3-azabicyclo[3.1.0]hexan-3-yl)pyridin-3-yl)ethyl)-1H-pyrazole-4-carboxamide], the midpoint of inhibition, the IC50, lay at 1.5 nM.
The same measure for `COc1cc(C(C)n2cc(C(=O)N[C@H]3C[C@@H](c4cc(C)ccc4C#N)C3)cn2)cnc1N1C[C@H]2C[C@H]2C1=O` (single isomer, unassigned) [Example 23, N-((cis)-3-(2-cyano-5-methylphenyl)cyclobutyl)-1-((R or S)-1-(5-methoxy-6-((1R,5S)-2-oxo-3-azabicyclo[3.1.0]hexan-3-yl)pyridin-3-yl)ethyl)-1H-pyrazole-4-carboxamide]: 3.9 nM.

(Values after patent publication US12528786B2, “Plasma kallikrein inhibitors” (Merck Sharp & Dohme LLC, priority 2020, dated 2026).)
